Test results from patent EP4667500A1, “FRUCTOOLIGOSACCHARIDE DERIVATIVES AND USES THEREOF” (Biopract GmbH, priority 2024, dated 2025).

System: pancreatic enzymes
Test: Stability in simulated small intestine (pancreatic hydrolysis), released substituent acid detected by HPLC
Format: in vitro ADME
Settings: incubation in simulated intestinal environment
Text: The compounds analysed are esters between primary or secondary alcohols and fatty acids. In the stomach, the influence of the pH value and its chemical effect is decisive. The stability of the molecules there depends mainly on the nature of the bond. This is the same for all the molecules analysed. […] In contrast, hydrolysis in the small intestine is enzymatically catalysed and the stability can vary greatly between the molecules studied. The work on stability was therefore focussed on pancreatic hydrolysis.
The synthesised ester compounds consisted of a fructooligosaccharide scaffold of the inulin or levan type, to which substituent molecules were bound via an ester bond. Organic acids, predominantly butyric acid, and also propionic acid, acetic acid, succinic acid and benzoic acid served as substituents. The study consisted of incubating the substances in a simulated intestinal environment, followed by the detection of the substituent acid present and, if applicable, released by means of HPLC. Tributyrin was used as a positive control according to the literature.

## CCCC(=O)OCC(COC(=O)CCC)OC(=O)CCC [Tributyrin]
  stability under the test conditions of the simulated small intestine: largely hydrolysed
